Data published in ChEMBL document CHEMBL3286190, “Discovery of antitubulin agents with antiangiogenic activity as single entities with multitarget chemotherapy potential” (ACS Med Chem Lett, 2014).
Blank lines part the entries; values can stand above or below the molecule they belong to. Activity calls are given as the source filed them. No cut-off for these calls is given here.

Columns and labels:
[1] = target: Tubulin (Bos taurus, UniProt Q6B856+Q862L2+Q862F3); assay: Inhibition of bovine brain tubulin assembly preincubated for 15 mins followed by GTP addition measured for 20 mins by spectrophotometry
[2] = Growth inhibition of human OVCAR8 cells after 96 hrs incubation by sulforhodamine B technique; format: functional, cell-based; conditions: OVCAR-8, 96 h
[3] = system: NCI/ADR-RES; assay: Growth inhibition of human NCI/ADR-RES cells overexpressing P-gp after 96 hrs incubation by sulforhodamine B technique; format: functional, cell-based
[4] = system: MDA-MB-435; assay: Antitumor activity against human MDA-MB-435 cells xenografted into flank of athymic BALBc/J mouse assessed as decrease in tumor vascular density at 35 mg/kg twice weekly by CD31/PECAM-1 immunohistochemical staining; format: functional, organism-based; design: dose 35 mg/kg
[5] = system: MDA-MB-435; assay: Antitumor activity against human MDA-MB-435 cells xenografted into flank of […] assessed as decrease in tumor growth at 35 mg/kg twice weekly measured up to 34 days; format: functional, organism-based; design: dose 35 mg/kg
[6] = system: Mus musculus; assay: Toxicity in athymic BALBc/J mouse xenografted with human MDA-MB-435 cells assessed as body weight at 35 mg/kg twice weekly; format: organism-based; design: dose 35 mg/kg; conditions: in vivo
[7] = system: U-251; assay: Antitumor activity against human U251 cells xenografted into athymic NCr mouse assessed as decrease in tumor growth at 35 mg/kg twice weekly measured up to 34 days; format: functional, organism-based; design: dose 35 mg/kg
[8] = system: 4T1; assay: Antitumor activity against mouse 4T1 cells expressing luciferase allografted in BALBc/J mouse assessed as suppression of tumor growth at 35 mg/kg twice weekly measured up to 30 days; format: functional, organism-based; design: dose 35 mg/kg
[9] = system: 4T1; assay: Antitumor activity against ip dosed mouse 4T1 cells expressing luciferase allografted in BALBc/J mouse assessed as reduction in lung metastases at 35 mg/kg twice weekly measured after 32 days; format: functional, organism-based; design: dose 35 mg/kg
[10] = system: Mus musculus; assay: Toxicity in BALBc/J mouse allografted with mouse 4T1 cells at 35 mg/kg twice weekly measured up to 32 days; format: organism-based; design: dose 35 mg/kg; conditions: in vivo, 768 h
[11] = system: Mus musculus; assay: Toxicity in athymic NCr mouse xenografted with human cells at 35 mg/kg twice weekly measured up to 34 days; conditions: in vivo, 816 h
[12] = system: HeLa; assay: Growth inhibition of wild type human HeLa cells after 96 hrs incubation by sulforhodamine B technique; format: functional, cell-based
[13] = system: HeLa; assay: Growth inhibition of human HeLa cells overexpressing beta-3 after 96 hrs incubation by sulforhodamine B technique; format: functional, cell-based
[14] = system: MDA-MB-435; assay: Antitumor activity against human MDA-MB-435 cells xenografted into flank of […] assessed as decrease in tumor growth at 30 mg/kg twice weekly measured up to 34 days; format: functional, organism-based; design: dose 30 mg/kg
[15] = system: MDA-MB-435; assay: Antitumor activity against human MDA-MB-435 cells xenografted into flank of athymic BALBc/J mouse assessed as decrease in tumor vascular density at 30 mg/kg twice weekly by CD31/PECAM-1 immunohistochemical staining; format: functional, organism-based; design: dose 30 mg/kg
[16] = system: Mus musculus; assay: Toxicity in athymic BALBc/J mouse xenografted with human MDA-MB-435 cells assessed as body weight at 30 mg/kg twice weekly; format: organism-based; design: dose 30 mg/kg; conditions: in vivo
[17] = system: U-251; assay: Antitumor activity against human U251 cells xenografted into athymic NCr mouse assessed as decrease in tumor growth at 30 mg/kg twice weekly measured up to 34 days; format: functional, organism-based; design: dose 30 mg/kg
[18] = system: Mus musculus; assay: Toxicity in athymic NCr mouse at 30 mg/kg twice weekly measured up to 34 days; conditions: in vivo, 816 h
[19] = system: NCI60; assay: Growth inhibition of human NCI60 cells after 96 hrs incubation by sulforhodamine B technique; format: functional, cell-based
[20] = species: Homo sapiens; assay: Disruption of microtubule organization in human MDA-MB-435 cells at IC50 concentration after 2 hrs by immunofluorescence assay; format: cell-based
[21] = system: MDA-MB-435; assay: Cell cycle arrest in human MDA-MB-435 cells assessed as increase in accumulation at G2/M phase at IC50 concentration after 2 hrs by propidium iodide staining-based flow cytometry; format: functional
[22] = system: MDA-MB-435; assay: Induction of apoptosis in human MDA-MB-435 cells assessed as PARP cleavage at IC50 concentration after 48 hrs by Western blotting analysis; format: functional, cell-based
[23] = system: MDA-MB-435; assay: Induction of apoptosis in human MDA-MB-435 cells assessed as caspase 3 cleavage at IC50 concentration after 48 hrs by Western blotting analysis; format: functional, cell-based
[24] = target: Tubulin (Homo sapiens) (UniProt P68371+Q9H4B7+P0DPH7+P68366+Q13509+Q71U36+P04350+Q3ZCM7+P07437+P68363+Q9BQE3+Q6PEY2+Q13885+Q9BVA1+Q9BUF5); assay: Displacement of [3H]-colchicine from tubulin (unknown origin) at 50 uM relative to control; format: protein-complex assay
[25] = system: Mus musculus; assay: Toxicity in athymic BALBc/J mouse xenografted with human MDA-MB-435 cells assessed as body weight at 25 mg/kg twice weekly; format: organism-based; design: dose 25 mg/kg; conditions: in vivo
[26] = system: Mus musculus; assay: Toxicity in athymic NCr mouse xenografted with human U251 cells at 25 mg/kg twice weekly measured up to 34 days; format: organism-based, U-251; design: dose 25 mg/kg; conditions: in vivo, 816 h
[27] = system: Mus musculus; assay: Toxicity in BALBc/J mouse allografted with mouse 4T1 cells at 25 mg/kg twice weekly measured up to 32 days; format: organism-based; design: dose 25 mg/kg; conditions: in vivo, 768 h
[28] = system: MDA-MB-435; conditions: Homo sapiens, 25 mg/kg
Description: Antitumor activity against human MDA-MB-435 cells xenografted into flank of athymic BALBc/J mouse assessed as decrease in tumor vascular density at 25 mg/kg twice weekly by CD31/PECAM-1 immunohistochemical staining

[29] = system: MDA-MB-435; conditions: Homo sapiens, 25 mg/kg; remark: listed apart in the source
Description: Antitumor activity against human MDA-MB-435 cells xenografted into flank of athymic BALBc/J mouse assessed as decrease in tumor growth at 25 mg/kg twice weekly measured up to 34 days

[30] = system: U-251; conditions: Homo sapiens, 25 mg/kg
Description: Antitumor activity against human U251 cells xenografted into athymic NCr mouse assessed as decrease in tumor growth at 25 mg/kg twice weekly measured up to 34 days

[31] = system: 4T1; conditions: Mus musculus, 25 mg/kg
Description: Antitumor activity against mouse 4T1 cells expressing luciferase allografted in BALBc/J mouse assessed as suppression of tumor growth at 25 mg/kg twice weekly measured up to 30 days

[32] = system: 4T1; conditions: Mus musculus, 25 mg/kg; remark: listed apart in the source
Description: Antitumor activity against ip dosed mouse 4T1 cells expressing luciferase allografted in BALBc/J mouse assessed as reduction in lung metastases at 25 mg/kg twice weekly measured after 32 days

[33] = system: Chorioallantoic membrane; assay: tissue or blood; conditions: Gallus gallus
Description: Antiangiogenic activity in chicken chorioallantoic membrane assessed as inhibition of VEGF/bFGF-induced angiogenesis treated 8 hrs after VEGF/bFGF addition measured after 40 hrs by microscopy

IC50 [1]: 21 µM
IC50 [12]: 0.28 µM
IC50 [13]: 0.28 µM
inhibition [24]: 55%
Compound: COc1ccc(N(C)c2nc(C)nc3c(Cc4ccccc4)c[nH]c23)cc1.Cl
IC50 [2]: 1 µM
IC50 [3]: 0.7 µM
growth inhibition (GI) [19]: Active
Activity [20]: Active
Activity [21]: Active
Activity [22]: Active
Activity [23]: Active
Activity [25]: Non-toxic
Activity [26]: Non-toxic
Activity [27]: Non-toxic
inhibition [28]: Active
inhibition [29]: Active
inhibition [30]: Active
inhibition [31]: Active
inhibition [32]: Active
IC50 [33]: 2.9 µM

IC50 [1]: > 20 µM
IC50 [12]: > 10 µM
IC50 [13]: > 10 µM
Compound: COc1ccc(Nc2nc(C)nc3c(Cc4ccccc4)c[nH]c23)cc1.Cl

IC50 [1]: > 20 µM
IC50 [12]: > 10 µM
IC50 [13]: > 10 µM
Compound: Cc1nc(N(C)c2ccccc2)c2[nH]cc(Cc3ccccc3)c2n1.Cl

Further lines, the molecule ahead of its results:

Compound: COc1ccc(Nc2nc(C)nc3c(Cc4ccccc4)c[nH]c23)c(OC)c1.Cl
IC50 [1]: > 40 µM
IC50 [2]: > 5 µM
IC50 [3]: > 5 µM

Compound: CC(=O)O[C@@]12CO[C@@H]1C[C@H](O)[C@@]1(C)C(=O)[C@H](O)C3=C(C)[C@@H](OC(=O)[C@H](O)[C@@H](NC(=O)OC(C)(C)C)c4ccccc4)C[C@@](O)([C@@H](OC(=O)c4ccccc4)[C@H]21)C3(C)C.O.O.O [DOCETAXEL]
inhibition [4]: Active
inhibition [5]: Active
Activity [6]: Non-toxic
inhibition [7]: Active
inhibition [8]: Active
inhibition [9]: Active
Activity [10]: Non-toxic
Activity [11]: Non-toxic

Compound: CC(=O)O[C@H]1C(=O)[C@@]2(C)[C@H]([C@H](OC(=O)c3ccccc3)[C@]3(O)C[C@H](OC(=O)[C@H](O)[C@@H](NC(=O)c4ccccc4)c4ccccc4)C(C)=C1C3(C)C)[C@]1(OC(C)=O)CO[C@@H]1C[C@@H]2O [PACLITAXEL]
IC50 [12]: 0.0053 µM
IC50 [13]: 0.016 µM
IC50 [2]: 0.01 µM
IC50 [3]: 5 µM

Compound: CCN(CC)CCNC(=O)c1c(C)[nH]c(/C=C2\C(=O)Nc3ccc(F)cc32)c1C [SUNITINIB]
inhibition [14]: Active
inhibition [15]: Active
Activity [16]: Non-toxic
inhibition [17]: Active
Activity [18]: Non-toxic

Compound: COc1ccc(N(C)c2nc(C)nc3cc[nH]c23)cc1.Cl
IC50 [1]: 10 µM

Compound: COc1ccc(/C=C\c2cc(OC)c(OC)c(OC)c2)cc1O [COMBRETASTATIN A4]
IC50 [12]: 0.0018 µM
IC50 [13]: 0.0025 µM
